US8946201B2, “Methods for inhibiting TGF-β” (Saint Louis University, priority 2007, dated 2015)

How the values were obtained:
[1] = tested on: Mv1Lu cells; test: [Methyl-3H]thymidine incorporation (DNA synthesis), Mv1Lu cells; assay type: cell-based, mink; details: 18 hr
Experimental: (A, B, C, D, E, F) Cells were treated with 50 μg/ml cholesterol (A, B, C, D) and 50 μg/ml LDL (D) at 37° C. for 1 hr or with 1 μM fluvastatin or lovastatin (E) or several concentrations of fluvastatin (F) at 37° C. for 16 hr and then further incubated with increasing concentrations (as indicated) of TGF-β1 (A, B, C, E) or 50 pM TGF-β1 (D,F) for 2 hr. Northern blot analysis of PAI-1 and G3PDH was performed. A representative of a total of three analyses is shown (a). The relative intensities of the transcripts were quantified with a PhosphoImager. The ratio of the relative intensities of PAI-1 and G3PDH transcripts in cells treated without TGF-β1 and cholesterol, LDL or statins on the blot was taken as 1 fold or 100% of PAI-1 expression. The quantitative data from three independent analyses is shown (b). […] (G) Mv1Lu cells stably expressing a luciferase reporter gene driven by the PAI-1 promoter (MLECs-clone 32) were treated with increasing concentrations (as indicated) of cholesterol at 37 EC for 1 hr (a) or with 1 μM lovastatin at 37° C. for 16 hr (b) and then further incubated with 50 pM TGF-β for 7 hr. The luciferase activity in cells treated without cholesterol was taken as 100% (a). […] (H) Cells were incubated with 0.0625 and 0.125 pM TGF-β1 in the presence of increasing concentrations of cholesterol, as indicated. After 18 hr at 37° C., cell growth was determined by measurement of [^3H-methyl]thymidine incorporation into cellular DNA (a). The [^3H-methyl]thymidine incorporation in cells treated with vehicle only (T1); with TGF-β1 (T2); with cholesterol (T3); with cholesterol and TGF-β1 (T4) was measured. T1 was taken as 100%. The degree (%) of cholesterol-mediated reversal of TGF-β1 growth inhibition was estimated by the equation: % reversal=[1−(T3−T4/T1−T2)]×100 Cholesterol appeared to reverse TGF-β1 growth inhibition in a dose-dependent manner (b). The experiments were carried out in triplicate.
The growth of cholesterol-treated cells was determined by measurement of [methyl-^3H]thymidine incorporation into cellular DNA as described (30). Briefly, cells grown near confluence on 48-well clustered dishes were treated with several concentrations of cholesterol at 37° C. for 1 hr in serum-free DMEM. The final concentration of ethanol (the vehicle for cholesterol) in the medium was 0.2%. […] The [methyl-^3H]thymidine incorporation into cellular DNA was then determined by incubation of cells with [methyl-^3H]thymidine at 37° C. for 2 hr in DMEM containing 0.1% fetal calf serum. […]
Another prominent biological activity of TGF-β is growth inhibition of many different cell types. […] DNA synthesis was then determined by measurement of [^3H-methyl]thymidine incorporation into cellular DNA (FIG. 2Ha). […]

[2] = tested on: TβR-I and TβR-II; test: 125I-TGF-β1 affinity labeling, Mv1Lu cells; assay type: cell-based, mink; details: for effect on the LDL- or cholesterol-induced increase of 125I-TGF-β1 binding to TβR-I: co-treatment, β-CD 8 mM, nystatin 25 μg/ml, cholest-4-en-3-one 50 μg/ml (FIG. 4B, C)
Experimental: (A) Mv1Lu cells were treated with 50 μg/ml cholesterol at 37° C. After several time periods, as indicated, ^125I-TGF-β1-affinity labeling was performed at 0° C. ^125I-TGF-β1 affinity-labeled TGF-β receptors were analyzed by 7.5% SDS-PAGE and autoradiography (a) and quantified with a PhosphoImager. The bracket indicates the locations of ^125I-TGF-β1 affinity-labeled TβR-I and TβR-II. The ratio of ^125I-TGF-β1 binding to TβR-II and TβR-I is plotted against incubation time (b).
(B, C, D, E) Cells were treated with increasing concentrations of cholesterol in the presence (C) and absence (B, D, E) of 0.2% β-CD, as indicated. After 1 hr at 37° C., ^125I-TGF-β1 affinity labeling of TβR-I and TβR-II in cells was performed at 0° C. ^125I-TGF-β1 affinity-labeled TβR-I and TβR-II were analyzed by 7.5% SDS-PAGE and autoradiography or quantified with a PhosphoImager. A representative of a total of three analyses is shown (top). The bracket indicates the locations of ^125I-TGF-β affinity-labeled TβR-I and TβR-II. The relative intensities of ^125I-TGF-β1 affinity-labeled TβR-I and TβR-II in cells treated without cholesterol were taken as 100%. The quantitative data from three analyses is shown (bottom).
The bracket indicates the locations of ^125I-TGF-β1 affinity-labeled TβR-I and TβR-II. The relative intensities of ^125I-TGF-β1-TβR-I and ^125I-TGF-β1-TβR-II complexes, which were quantified with a PhosphoImager, are plotted against TGF-β1 concentrations (bottom).
(A, B, C, D, E, F) Cells were treated with LDL (50 μg protein/ml), VLDL (5 μg protein/ml), HDL (50 μg protein/ml), lipoprotein (a) (10 μg/ml), fluvastatin (F; 1 μM), lovastatin (L; 1 μM), nystatin (Nys; 25 μg/ml), β-CD (β-CD; 8 mM), cholest-4-en-3-one (3-one; 50 μg/ml) or cholesterol (Chol; 50 μg/ml) alone or combination of two. After 1 hr at 37° C. or 16 hr at 37° C. (for fluvastatin and lovastatin), ^125I-TGF-β1 affinity labeling of cell-surface TGF-β receptors was performed at 0° C. ^125I-TGF-β1 affinity-labeled TβR-I and TβR-II were analyzed by 7.5% SDS-PAGE and autoradiography. The relative intensities of TβR-I and TβR-II were quantified with a PhosphoImager. The ratio of ^125I-TGF-β1 binding to TβR-II and TβR-I were estimated. The numbers above the lane sequence denote the ratio of TβR-II/TβR-I.
(G) Mv1Lu cells were treated with 50 μg/ml of cholesterol and cholesterol analogs/derivatives including 25-hydroxycholesterol, 7-dehydrocholesterol (7-DHC), 7-ketocholesterol, 7β, 8β-epoxycholesterol, 7β-hydroxycholesterol, and oxidized 7-dehydrocholesterol (oxy-7DHC). After 1 hr at 37° C., ^125I-TGF-β1 affinity labeling of TGF-β receptors was performed. ^125I-TGF-β1 affinity-labeled TβR-I and TβR-II were analyzed by 7.5% SDS-PAGE and autoradiography. The bracket indicates the locations of ^125I-TGF-β1-affinity-labeled TβR-I and TβR-II. The relative intensities of ^125I-TGF-β1 affinity-labeled TβR-I and TβR-II were determined by a PhosphoImager. The ratios of ^125I-TGF-β1 binding to TβR-II and TβR-I were estimated. The numbers above the lane sequence denote the ratio of TβR-II/TβR-I.
After cross-linking, cell lysates were analyzed by 7.5% SDS-PAGE and autoradiography or quantified by a PhosphoImager. For all experiments, cholesterol or cholesterol derivatives were prepared as the stock solution with a concentration of 25 mg/ml in ethanol. The final concentration of ethanol in the medium was 0.2% (by vol.).

[3] = tested on: TβR-II; test: TGF-β1-induced degradation of TβR-II, Western blot; assay type: cell-based; details: 1% β-CD
Experimental: (E) Cells were treated with several concentrations of cholesterol (a,b) or LDL (c,d) as indicated in the presence and absence of 1% β-CD at 37° C. for 1 hr and further incubated with 50 pM TGF-β for 1 hr. The cell lysates were then subjected to 7.5% SDS-PAGE and Western blot analysis using antibodies to TβR-II and α-actin (a,c). The relative intensities of TβR-II and α-actin on the blot were quantified by densitometry (b,d). The ratio of the relative intensities of TβR-II and α-actin in cells treated without TGF-β1 was taken as the 100% level of TβR-II.
(F, G) Cells were treated with or without 1 μM lovastatin/fluvastatin or nystatin (25 μg/ml)/cholesterol (50 μg/ml) at 37° C. for 16 hr or 1 hr, respectively. The treated cells were directly analyzed by sucrose density gradient ultracentrifugation analysis (F) or further incubated with 50 pM TGF-β at 37° C. for several time periods as indicated (G). Western blot analysis of the sucrose density gradient fractions (F) and of TGF-β1-treated cell lysates (G) was performed using antibody to TβR-II. The relative levels of TβR-II and α-actin were quantified by densitometry. Fractions ⅘ and 7 represent lipid raft/caveolae and non-lipid raft fractions, respectively. […] The quantitative data from three independent analyses is shown (G, bottom). […]
Cells grown to near confluence on 12-well cluster dishes were treated with cholesterol or LDL in serum-free DMEM (vol.=0.5 ml/well) at 37° C. for 1 hr. […] Treated cells were lysed and cell lysates were analyzed by 7.5% SDS-PAGE and Western blot analysis using anti-Smad2, anti-P-Smad2, anti-caveolin-1, anti-TβR-I (alk5) or anti-TβR-II antibodies as described previously (30). […]
Lipid raft/caveolae-mediated endocytosis of receptor-bound TGF-β results in rapid degradation of TGF-β1 and suppression of TGF-β responsiveness. […] To test this, we analyzed the lipid raft/caveolae and non-lipid raft localization of TβR-I and TβR-II in the plasma membrane of cells treated with or without cholesterol (50 μg/ml) using sucrose density gradient ultracentrifugation analysis. […]

| Compound | inhibition of DNA synthesis ([1]; 0.0625 pM) [%] | inhibition of DNA synthesis ([1]; 0.125 pM) [%] | half-maximum concentrations of binding to TβR-I and TβR-II ([2]; Mv1Lu cells treated with and without cholesterol, 0° C. 2.5 hr) [pM] | Kd ([2]; stated identical to the half-maximum concentration, read-out: apparent Kd of binding to the TGF-β receptors) [nM] | effect on the cholesterol-enhanced TGF-β1-induced degradation of TβR-II [3] | effect on the LDL- or cholesterol-induced increase of 125I-TGF-β1 binding to TβR-I [2] |
| --- | --- | --- | --- | --- | --- | --- |
| TGF-β1: transforming growth factor-beta 1, 25-kDa dimeric cytokine; also used 125I-labelled | ~30 | ~40 | 50 to 80 | 0.05 to 0.08 |  |  |
| OC[C@H]1O[C@@H]2O[C@H]3[C@H](O)[C@@H](O)[C@@H](O[C@H]4[C@H](O)[C@@H](O)[C@@H](O[C@H]5[C@H](O)[C@@H](O)[C@@H](O[C@H]6[C@H](O)[C@@H](O)[C@@H](O[C@H]7[C@H](O)[C@@H](O)[C@@H](O[C@H]8[C@H](O)[C@@H](O)[C@@H](O[C@H]1[C@H](O)[C@H]2O)O[C@@H]8CO)O[C@@H]7CO)O[C@@H]6CO)O[C@@H]5CO)O[C@@H]4CO)O[C@@H]3CO [β-CD, β-cyclodextrin, reference compound] |  |  |  |  | abolished | abolished |
| CC(C)CCC[C@@H](C)[C@H]1CC[C@H]2[C@@H]3CCC4=CC(=O)CC[C@]4(C)[C@H]3CC[C@]12C [4-cholesten-3-one, reference compound] |  |  |  |  |  | abolished |
